Experimental findings from patent US20220110919A1, “METHODS OF MODULATING LEUKOCYTES ACTIVATION AND THROMBOCYTE CLEARANCE WITH INHIBITORS OF SPECIFIC NEURAMINIDASE ISOENZYMES” (The Governors of the University of Alberta, priority 2018, published 2022) are described below.

The test system of this assay is reticulated platelets. Kind of assay: Passive Antibody Transfer Model of ITP (immunothrombocytopenia). To be noted: C57Bl/6NCrI mice, anti-CD41 antibody; daily intraperitoneal 30 μg/kg vs saline. The assay is classed as in vivo. The text has this: The Passive Antibody Transfer Model of ITP has been extensively used to understand the progression of chronic ITP and to rapidly evaluate the efficacy of various therapeutics (Neschadim et al., 2015). The model is characterized by a rapid onset of the ITP and clear involvement of phagocytic monocytes in platelet destruction. In addition, it provides a possibility to use self-antigens relevant to the human condition. Depending on the type, quantity, and frequency of the administered antibody it is possible to vary the severity and the persistence of the induced ITP by fine-tuning the rate and the level of platelet decline whereas the repeated administration of the monoclonal antibody simulates chronic human IT.
Female 6-week old C57Bl/6NCrI mice and genetically-modified C57Bl/6NCrI mice with neu1 deficiency (Passive Antibody Transfer Model of ITP, Neschadim et al., 2015) received escalating daily doses (68 μg/kg on the 1st and 2d days, 102 μg/kg on the third day) of anti-CD41 anti-platelet monoclonal mouse antibody (clone MWReg30) by intraperitoneal injection. The reticulated platelets were measured daily for three days by flow cytometric analysis. Control mice (C57B16) received injections of saline. […]

Turning to `CCCCC(=O)NCC(O)C(O)C1OC(C(=O)O)=CC(O)[C@H]1NC(C)=O` (stereo partly drawn) [compound 50, 5-Acetamido-9-pentanamido-2,6-anhydro-3,5-dideoxy-D-glycero-D-galacto-non-2-enonic acid], the platelet reduction rate result is “lower platelet reduction rates”.
